According to patent US8101570B2, “Single branch heparin-binding growth factor analogs” (BioSurface Engineering Technologies, Inc., priority 2005, dated 2012):
Read-outs that look alike come from different tables or passages of the source. Where a SMILES comes first, the peptide text is derived from it. Bridges are numbered along the chain shown (N, C = ends). Roman numbers before positions name the chains, in order. Where no end group is shown, it is not given here. [ ]: non-standard residue; d: D form. Hx = not defined here; Ahx = NCCCCCC(=O)O

Key:
PDGF R Beta = biological target: T1, PDGF R Beta (Homo sapiens, UniProt P09619); assay: Surface plasmon resonance (BIAcore) binding to immobilized soluble PDGF receptor beta; conditions: for kon / koff: SPR, 1:1 fit; for kon: read-out: Ka (association rate constant); for koff: read-out: Kd (dissociation rate constant)
T1 construct: Soluble PDGF receptor, recombinant chimera of human PDGF-R-alpha and PSGF-R-beta; purchased R&D Systems
T1 sequence (P09619 33-532 limits assumed): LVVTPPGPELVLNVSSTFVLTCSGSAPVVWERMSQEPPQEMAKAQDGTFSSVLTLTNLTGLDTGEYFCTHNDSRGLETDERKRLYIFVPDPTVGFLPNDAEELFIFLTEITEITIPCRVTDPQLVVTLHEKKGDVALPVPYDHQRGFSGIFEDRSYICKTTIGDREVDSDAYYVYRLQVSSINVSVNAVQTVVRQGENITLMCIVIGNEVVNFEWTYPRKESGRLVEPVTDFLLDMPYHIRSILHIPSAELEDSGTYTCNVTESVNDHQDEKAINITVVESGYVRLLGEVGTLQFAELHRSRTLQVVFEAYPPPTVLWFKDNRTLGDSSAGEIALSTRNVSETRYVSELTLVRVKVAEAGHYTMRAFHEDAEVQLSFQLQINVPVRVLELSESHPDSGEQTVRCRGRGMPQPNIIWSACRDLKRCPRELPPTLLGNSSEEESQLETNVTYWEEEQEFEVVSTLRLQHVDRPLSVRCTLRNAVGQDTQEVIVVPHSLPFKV
Experimental: (§1) Surface Plasmon Resonance (SPR) Analysis. Real-time biomolecular interactions were analyzed with a BIAcore 2000 system (Biacore Inc., Piscataway, N.J.). Soluble PDGF receptor, recombinant chimera of human PDGF-R-alpha and PSGF-R-beta (R &D Systems, Minneapolis, Minn.), was immobilized on research grade CM5 chips (Biacore Inc., Piscataway, N.J.). Following activation with EDC/NHS, the receptors were immobilized on activated CM5 chips. To obtain kinetic data, different concentrations of analytes in HBS-EP buffer were injected over the sensor chip at a flow rate of 50 μl/min. Peptide binding was measured in resonance units (RU). At the end of each sample injection (120 s) buffer was passed over the sensor surface to monitor the dissociation phase. Reference responses from blank flow cells were subtracted from receptor-containing flow cells for each analyte injection and the kinetic parameters for each interaction were determined by globally fitting the experimental data to a 1:1 interaction with BIAEVALUATION software (Biacore Inc., Piscataway, N.J.). The association rate constant and the dissociation rate constant (ka and kd, respectively), and the equilibrium dissociation constant (KD) are presented in the Table 3 for the receptors and PBA2-1.
as §1, with “4” for “3”

human PDGF-R-alpha = biological target: T2, human PDGF-R-alpha (Homo sapiens, UniProt P16234); assay: Surface plasmon resonance (BIAcore) binding to immobilized soluble PDGF receptor alpha; conditions: SPR, 1:1 fit; for kon: read-out: Ka (association rate constant); for koff: read-out: Kd (dissociation rate constant)
T2 construct: Soluble PDGF receptor, recombinant chimera of human PDGF-R-alpha; purchased R&D Systems
T2 sequence (P16234 24-528 limits assumed): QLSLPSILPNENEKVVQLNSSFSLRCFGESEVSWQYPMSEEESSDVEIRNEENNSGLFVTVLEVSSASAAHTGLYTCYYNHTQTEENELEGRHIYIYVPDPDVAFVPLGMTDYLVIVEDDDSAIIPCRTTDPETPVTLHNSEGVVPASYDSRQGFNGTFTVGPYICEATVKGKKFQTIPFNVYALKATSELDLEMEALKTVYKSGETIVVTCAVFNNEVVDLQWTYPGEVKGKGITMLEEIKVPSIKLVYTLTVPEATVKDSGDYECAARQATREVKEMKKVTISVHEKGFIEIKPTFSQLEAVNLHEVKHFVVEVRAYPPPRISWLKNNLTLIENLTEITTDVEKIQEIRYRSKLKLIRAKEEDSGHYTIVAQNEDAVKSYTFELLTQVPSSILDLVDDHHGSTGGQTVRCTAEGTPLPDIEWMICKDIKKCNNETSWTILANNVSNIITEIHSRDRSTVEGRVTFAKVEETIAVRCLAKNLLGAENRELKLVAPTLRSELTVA
Experimental: as §1
as §1, with “4” for “3”

C2C12 cells [1] = assay: Alkaline phosphatase assay in C2C12 cells in the presence of recombinant BMP-7; format: cell-based, mouse; conditions: serum low medium containing BMP-7, FIG. 8
Experimental: This peptide was evaluated using C2C12 cells and in the presence of recombinant BMP-7 and using alkaline phosphatase production as an endpoint. Alkaline phosphatase assays were performed using mouse the pluripotent cell lines C2C12. Cells were plated in 96-well (1×10^4/well) plates and allowed 24 hours to attach. The medium was then replaced with a serum low medium containing BMP-7 and/or B7A1-6. After several days, cells were rinsed, lysed, and alkaline phosphatase activity measured using p-nitrophenylphosphate as substrate.

Sup-T1 cells = assay: Sup-T1 cell proliferation; format: cell-based; conditions: low serum, 3 days, FIG. 2
Experimental: Cell proliferation. Sup-T1 cells were obtained from the American Type Culture Collection (Manassas, Va.) and were grown in culture. To monitor the effect of SD1-1 on cell proliferation, Sup-T1 cells were seeded at 100,000 cells per well of a 96-well plate and allowed to attach. The medium was changed to one containing low serum plus SD1-1 and the cells incubated for 3 days after which time the relative cell number was determined using a commercially available kit Referring now to FIG. 2, data in the graph below is reported as the average±SD. Commercially-available recombinant human SDF-1 (diamond) was used as a reference and positive control for comparison of proliferation stimulated by […].

C2C12 cells [2] = assay: C2C12 cell migration, trans-well insert assay; format: cell-based; conditions: 8 μm pore membrane coated with collagen, FIG. 3
Experimental: Cell migration. SD1-1 was evaluated for its ability to induce migration of C2C12 cells using a commercially-available cell migration assay. C2C12 cells were seeded on a trans-well insert containing an 8 μm pore size polycarbonate membrane coated with a thin layer of polymerized collagen. The inserts were placed into wells with medium containing SD1-1. Cells that migrated through the membrane were found on the bottom of the insert membrane. These cells were stained, and the stain extracted and detected on a standard microplate reader (560 nm). Referring now to FIG. 3, the results of cell migration in response to the SD1-1 peptide as compared to SDF-1 peptide or control are illustrated. Data is reported as the average±SD.

M-NSF-60 cells = assay: Augmentation of growth of M-NSF-60 cells in the presence of rhGCSF; format: cell-based; conditions: 0.01 ng rhGCSF, FIG. 9
Experimental: This peptide was evaluated for augmentation of growth using M-NSF-60 cells in the presence of 0.01 ng rhGCSF.

## CC[C@H](C)[C@H](NC(=O)[C@H](CCCNC(=N)N)NC(=O)[C@H](CCC(=O)O)NC(=O)[C@H](CC(C)C)NC(=O)[C@H](CCCCN)NC(=O)[C@H](CCCNC(=N)N)NC(=O)[C@H](CCCCN)NC(=O)[C@H](CCCNC(=N)N)NC(=O)CCCCCNC(=O)CCCCCNC(=O)CCCCCNC(=O)[C@H](CCCCNC(=O)[C@H](CCCCN)NC(=O)[C@H](CCCCN)NC(=O)[C@H](CCCNC(=N)N)NC(=O)[C@@H](NC(=O)[C@@H](NC(=O)[C@H](CCC(=O)O)NC(=O)[C@@H](NC(=O)[C@H](CCCCN)NC(=O)[C@H](CCCNC(=N)N)NC(=O)[C@@H](N)C(C)C)[C@@H](C)CC)[C@@H](C)CC)C(C)C)NC(=O)[C@H](CCCCN)NC(=O)[C@H](CCCCN)NC(=O)[C@H](CCCNC(=N)N)NC(=O)[C@@H](NC(=O)[C@@H](NC(=O)[C@H](CCC(=O)O)NC(=O)[C@@H](NC(=O)[C@H](CCCCN)NC(=O)[C@H](CCCNC(=N)N)NC(=O)[C@@H](N)C(C)C)[C@@H](C)CC)[C@@H](C)CC)C(C)C)C(=O)N[C@@H](C)C(=O)N[C@@H](CCCNC(=N)N)C(N)=O [PBA2-1, VRKIEIVRKKK(VRKIEIVRKK)HxHxHxRKRKLERIAR-amide] (I: H-VRKIEIVRKKK[Ahx][Ahx][Ahx]RKRKLERIAR-NH2 / II: H-VRKIEIVRKK; amide I:11-II:C)
PDGF R Beta
  Kd: 0.0202 µM
PDGF R Beta; Table 3, PDGF R Beta
  kon: 133000 M⁻¹ s⁻¹
  koff: 0.00296 s⁻¹
PDGF R Beta; Table 4, Beta
  kon: 353000 M⁻¹ s⁻¹
  koff: 0.00714 s⁻¹
Human PDGF-R-alpha; Table 3, PDGF R Alpha
  kon: 198000 M⁻¹ s⁻¹
  koff: 0.00336 s⁻¹
Human PDGF-R-alpha; Table 4, Alpha
  kon: 414000 M⁻¹ s⁻¹
  koff: 0.00965 s⁻¹

## AISVLYFDDSSNVILKKK(AISVLYFDDSSNVILKK)HxHxHxRKRKLERIAR-amide (chain 1 AISVLYFDDSSNVILKKK-{Hx-Hx-Hx-Arg-Lys-Arg-Lys-Leu-Glu-Arg-Ile-Ala-Arg-NH2}; reading uncertain; also: chain 2 C-terminus branched onto side chain of Lys18 of chain 1, bond at chain A 18 to a chain's C-terminus) [Example B7A1-6]
C2C12 cells [1]
  effect on BMP-7 activity (alkaline phosphatase activity): dose-dependant suppression of the activity of BMP-7

## KPVSLSYRAPARFFESHVAK(KPVSLSYRAPARFFESHVA)HxHxHxRKRKLERIAR-amide [SD1-1]
Sup-T1 cells
  cell proliferation (relative cell number): concentration dependent induction of cell proliferation
C2C12 cells [2]
  cell migration: induced cell migration

## SDF-1: Commercially-available recombinant human SDF-1 used as a reference and positive control [reference compound]
Sup-T1 cells
  cell proliferation (relative cell number): concentration dependent induction of cell proliferation
C2C12 cells [2]
  cell migration: induced cell migration

## SFLLKALEQVRKIQYK(SFLLKALEQVRKIQY)HxHxHxRKRKLERIAR-amide (chain 1 SFLLKALEQVRKIQYK-{Hx-Hx-Hx-Arg-Lys-Arg-Lys-Leu-Glu-Arg-Ile-Ala-Arg-NH2}; reading uncertain; also: chain 2 C-terminus branched onto side chain of Lys16 of chain 1, bond at chain A 16 to a chain's C-terminus) [GCSF1]
M-NSF-60 cells
  augmentation of cellular growth: augmented cellular growth
